As a reminder, the GI50 is the concentration at which growth is held to half of that of the control.

Data on 15 compounds can be found in ChEMBL document CHEMBL1201862, “PubChem BioAssay data set” (2004).

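Dose response: 5 concentrations. Exposure: 48 h. Format: 96-well plates. Endpoint: linear interpolation; highest concentration if not reached. GI50: concentration for 50% inhibition of growth.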 Calls of active or inactive are those of the source. Rule as the data show it: active = GI50 up to about 1.1 µM and inactive = higher.

Assay in all cases: DTP human tumour cell line panel, 48 h
Test [1] deals with A549.
In test [2] the test system is DU-145.
Test [3] deals with HCC 2998.
Test [4] concerns HCT-116.
The subject of test [5] is HCT-15.
In test [6] the test system is HT-29.
In test [7] the test system is Hs-578T.
For test [8], the system named is K562.
Test [9] relates to LOX IMVI.
For test [10], the system named is MCF7.
Test [11] deals with MDA-N.
Test [12] deals with NCI/ADR-RES.
Test [13] deals with OVCAR-3.
In test [14] the test system is PC-3.
Test [15] has as its system SF-268.
Test [16] concerns SF-295.
Test [17] deals with SR.
For test [18], the system named is T47D.
The subject of test [19] is UACC-257.
Test [20] has as its system DMS-273.

In the case of `COC(=O)c1ccc(C)cc1C1CN=NC12Cc1cc(C)ccc1C2=O` (stereo unspecified), the GI50 in [1] is 25.4 µM (inactive); in test [2], 34 µM (inactive); in [3], 23.8 µM (inactive); in test [4], 7.64 µM (inactive); in test [5] it was 5.24 µM; in test [6] it was 3.32 µM (inactive). In addition, the GI50 in [7] was 8.67 µM (inactive); in test [8], 4.84 µM (inactive); in test [9] it was 10.4 µM (inactive); in test [10], 3.61 µM (inactive); in [11], 2.37 µM (inactive); in test [12] it was 6.64 µM (inactive). Moreover, the GI50 in test [13] was 9.14 µM (inactive); in test [14], 11.5 µM (inactive); in test [15], 25.6 µM (inactive); in test [16], 7.28 µM (inactive); in [17], 4.41 µM (inactive); in [18], 20.8 µM (inactive). Besides, in [19], the GI50 is 17.7 µM (inactive).

As for `COC1(OC)CC2C(=O)N(Cc3ccccc3)C1CC2S(=O)(=O)c1ccccc1` (stereo unspecified), the GI50 in test [1] was > 100 µM (inactive); in [20], > 100 µM (inactive); in [4], > 100 µM (inactive); in test [5] it was > 100 µM; in test [6], > 100 µM (inactive); in test [8], > 100 µM (inactive). Moreover, the GI50 in [9], in test [13], in test [16] and in test [19] was > 100 µM (inactive) throughout.

Take `CC(C)=CC(=O)c1[nH]c2ccccc2c1CC(=O)NCCc1cncn1C`: the GI50 in test [1] is 68.4 µM (inactive); in test [2], 32.5 µM (inactive); in test [3], 34.6 µM (inactive); in [4], 67.9 µM (inactive); in test [5], > 100 µM; in test [6], 35.7 µM (inactive). In addition, the GI50 is 99.1 µM (inactive) in test [7]; 30.5 µM (inactive) in test [8]; 55.5 µM (inactive) in test [9]; 42.4 µM (inactive) in [10]; 50.7 µM (inactive) in [11]; > 100 µM (inactive) in [12]. In addition, the GI50 was 58.1 µM (inactive) in test [13]; 50.2 µM (inactive) in [14]; 61.8 µM (inactive) in test [15]; > 100 µM (inactive) in test [16]; 17.2 µM (inactive) in test [17]; 34.6 µM (inactive) in test [18]. Moreover, the GI50 in test [19] was 52.6 µM (inactive).

As to `CCNC1C2(CCCCC2)NC(=O)C12CCCCC2` (stereo unspecified), the GI50 in test [1] is > 100 µM (inactive); in test [20], > 100 µM (inactive); in test [3], > 100 µM (inactive); in test [4] it was > 100 µM (inactive); in test [5], > 100 µM; in test [6], > 100 µM (inactive). The GI50 in test [8], in test [13], in [16] and in test [19] was > 100 µM (inactive) each time.

Consider `O=C(NCCNCCO)N/N=C/c1ccccc1`, for which the GI50 in [1] is > 100 µM (inactive); in test [20] it was > 100 µM (inactive); in [4], > 100 µM (inactive); in test [5] it was > 100 µM; in test [6] it was > 100 µM (inactive); in [8], > 100 µM (inactive). Also, the GI50 in test [9], in test [13], in [15], in test [16] and in test [19] was > 100 µM (inactive) throughout.

For the compound `Nc1nc(N)c(-c2ccccc2)c(CCC(=O)Nc2ccc(Cl)cc2)n1`, the GI50 in [1] is > 100 µM (inactive); in test [20], > 100 µM (inactive); in test [3] it was > 100 µM (inactive); in test [4] it was > 100 µM (inactive); in test [5] it was > 100 µM; in test [6], > 100 µM (inactive). For the same compound, the GI50 is 76.2 µM (inactive) in test [8]; > 100 µM (inactive) in test [13]; > 100 µM (inactive) in [15]; > 100 µM (inactive) in [16]; > 100 µM (inactive) in test [17]; > 100 µM (inactive) in [19].

Regarding `COC1=CCC=C(C[C@@H]2NCCc3cc(OC)c(OC)cc32)C1`, the GI50 in [1] was > 100 µM (inactive); in test [20], > 100 µM (inactive); in test [3], > 100 µM (inactive); in [4], > 100 µM (inactive); in test [5], > 100 µM; in [6], > 100 µM (inactive). The GI50 in test [8], in [9], in [13], in [15], in test [16] and in test [19] was > 100 µM (inactive) in each case.

Turning to `Cn1cc(NC(=O)c2cc(NC(=O)CCCCCCCCC(=O)Nc3cc(C(=O)Nc4cc(C(=O)NCCC(N)N)n(C)c4)n(C)c3)cn2C)cc1C(=O)NCCC(=N)N`, the GI50 in [1] is 16.9 µM (inactive); in [20], 17.1 µM (inactive); in [3], 24.7 µM (inactive); in test [4], 20 µM (inactive); in test [5] it was 35.4 µM; in [6] it was 18.8 µM (inactive). Also, the GI50 is 13.4 µM (inactive) in test [8]; 36.9 µM (inactive) in [9]; 31 µM (inactive) in [13]; 20.5 µM (inactive) in test [15]; 23.3 µM (inactive) in test [16]; 13.7 µM (inactive) in test [19].

`Cc1cccc(NC(=O)C(=O)C(C(=O)c2ccc3ccccc3c2)C2OC(=O)c3ccccc32)c1C` (stereo unspecified): the GI50 in test [1] was 19.1 µM (inactive); in [20], 13.8 µM (inactive); in test [3], 6.03 µM (inactive); in [4], 9.68 µM (inactive); in test [5], 15.5 µM; in test [6], 28.1 µM (inactive). The GI50 in test [8] is 15.7 µM (inactive); in test [9] it was 13.2 µM (inactive); in test [13], 12.9 µM (inactive); in test [15] it was 6.03 µM (inactive); in test [19], 10.7 µM (inactive).

Consider `O=c1cccccc1NCCNc1cccccc1=O`, for which the GI50 was > 100 µM (inactive) in test [1]; > 100 µM (inactive) in test [20]; > 100 µM (inactive) in test [4]; > 100 µM in [5]; > 100 µM (inactive) in [6]; > 100 µM (inactive) in [8]. The GI50 in test [9], in test [13], in test [15], in [16], in [17] and in test [19] was > 100 µM (inactive) in each case.

`CC(C)C(NC(=O)C(Cc1ccccc1)NC(=O)[C@H]1CCC[C@H]1NC(=O)C(N)Cc1ccc(O)cc1)C(N)=O` (stereo partly specified): the GI50 was > 100 µM (inactive) in [1]; > 100 µM (inactive) in test [2]; > 100 µM (inactive) in test [3]; > 100 µM (inactive) in test [4]; > 100 µM in test [5]; > 100 µM (inactive) in test [6]. For the same compound, the GI50 in [7], in test [8], in test [9], in [10], in test [11] and in test [12] was > 100 µM (inactive) throughout. Also, the GI50 in test [13], in [14], in test [15], in [16], in [17] and in test [18] was > 100 µM (inactive) in each case. In [19], the GI50 was > 100 µM (inactive).

As to `C[C@H]1CC[C@@H]2[C@@H](C)[C@H]3[C@H](C[C@H]4[C@@H]5CC=C6C[C@@H](O)CC[C@]6(C)[C@H]5C[C@H](O)[C@]34C)N2C1`, the GI50 in test [1] is > 100 µM (inactive); in test [2], > 100 µM (inactive); in [3], > 100 µM (inactive); in test [4], > 100 µM (inactive); in test [5] it was > 100 µM; in [6] it was > 100 µM (inactive). For the same compound, the GI50 in [7], in [8], in [9], in test [10], in [11] and in [12] was > 100 µM (inactive) throughout. Also, the GI50 in test [13], in test [14], in test [15], in [16], in test [17] and in test [18] was > 100 µM (inactive) each time. The GI50 in [19] is > 100 µM (inactive).

In the case of `O=C(O)C1C2CCC(O2)C1C(=O)N1CCCCC1` (stereo unspecified), the GI50 in test [1] was 22.8 µM (inactive); in test [20], 10.6 µM (inactive); in test [3], 4.11 µM (inactive); in [4] it was 10.2 µM (inactive); in [5], 12.1 µM; in test [6] it was 4.07 µM (inactive). Moreover, the GI50 is 10.2 µM (inactive) in test [9]; 1.93 µM (inactive) in test [13]; 13.2 µM (inactive) in [15]; 10.4 µM (inactive) in test [16]; 3.68 µM (inactive) in [17]; 17.2 µM (inactive) in [19].

Regarding `OCc1ccc(C2CC(c3ccco3)=NN2c2ccccc2)o1` (stereo unspecified), the GI50 in test [1] was > 100 µM (inactive); in test [20], > 100 µM (inactive); in test [4], > 100 µM (inactive); in test [5] it was > 100 µM; in [6], > 100 µM (inactive); in test [8] it was 86.3 µM (inactive). Further, the GI50 in test [9], in test [13], in test [15], in [16] and in test [17] was > 100 µM (inactive) in each case.

For `Cc1cccc(Cl)c1NC(=O)c1cccc([N+](=O)[O-])c1O`, the GI50 in test [1] was 35.7 µM (inactive); in [20], 37.2 µM (inactive); in [3] it was 31.7 µM (inactive); in test [4] it was 43.3 µM (inactive); in test [5], 35.6 µM; in test [6] it was 41.8 µM (inactive). Further, the GI50 in [8] was 36.7 µM (inactive); in test [9], 27.5 µM (inactive); in test [13], 27.5 µM (inactive); in test [15], 31.8 µM (inactive); in test [16], 28.9 µM (inactive); in test [19] it was 28.4 µM (inactive).
